Test results as given in patent EP0358766A1, “METHOD OF STERILIZING PLANT ANTHERS” (VSESOJUZNY NAUCHNO-ISSLEDOVATELSKY INST. SELSKOKHOZYAISTV. …, priority 1988, dated 1989).

Columns and labels:
[1] = system: tetraploidem Roggen Belta; experiment: Field test of gametocidal activity, tetraploid rye Belta; format: in vivo; settings: period V, 1% aqueous emulsion, 6 kg/ha in 600 l water; for Prozentsatz des Ansetzens von Samen bei freier Bestäubung: control = 100
Source text: (§1) Die gametozide Aktivität der erfindungsgemäßen Sterilisationsmittel war in Feldversuchen in verschiedenen bodenklimatischen Zonen mit Teilstücken von 10 m^2 Größe in dreibis viermaliger Wiederholung festgestellt. Jedes Sterilisationsmittel wurde mindenstens 5 Jahre lang geprüft.
(§2) Die Entwicklung der Perioden der Organogenese wird zytologisch überwacht. Die Behandlung von Pflanzen mit dem Sterilisationsmittel erfolgt am Anfang der fünften Periode der Organogenese nach Kupermann.
(§3) Mit dem Ährenschieben verwirklicht man die Isolierung von Hauptähren und anderen Stockwerken in Pergametbeuteln. Bei Weizen und Tritikale werden Einzelisolatoren benutzt. Bei Roggen schließt man je 1 Ähre von […] verschiedenen nebeneinander befindlichen Pflanzen unter einen gemeinsamen Isolator ein. Bei Hirse wird jede Rispe getrennt isoliert. Der Sterilitätsprozentsatz (X) für Weizen, Roggen, Tritikale und Hirse wird nach der Formel [formula] ermittelt.
(§4) Die Kornzahl in nicht isolierten Ähren von Kontrollpflanzen wird bedingt für 100 % Ansetzen bei freier Bestäubung angenommen.
(§5) Um zuverlässige Angaben zu erhalten, verwendet man 20 bis 25 Isolatoren je Wiederholung für Weizen und Tritikale, 10 bis 15 Isolatoren jeder Wiederholung für Roggen und Hirse.
Pflanzen von tetraploidem Roggen Belta werden in der V.Periode der Organogenese (nach Kupermann) mit einer 1%igen wäßrigen Emulsion von 1,1,3-Tribrompropan, 1,1,3--Tribrom-4-chlorbutan, 1,1,2,3-Tetrabrompropan, 1,2,3-Tribrompropan, 1,1,3-Tribrom-3-chlorpropan bzw. 1,2-Dibrom--3-chlorpropan behandelt.
Die Emulsion enthält 0,5 Masse% C12-C14-Kalziumalk^yl-benzolsulfonat und 0,01 Masse% Dimethylsulfoxid. Der Verbrauch an Präparat beträgt 6 kg/ha bei 600 1 Wasserdurchsatz.Die Prüfergebnisse sind in der Tabelle 7 angegeben. Die gleichen Ergebnisse sind bei der Behandlung von tetraploidem Roggen Belta in der VI. Periode der Organogenese erhalten.

[2] = system: Sonnenblume Sorte Peredovik; experiment: Field test of pollen sterilisation, sunflower Peredovik; format: in vivo
Source text: as §1, §2
Zur Kontrolle der chemischen Sterilisation des Sonnenblumenpollens werden für jede Verbindung 45 behandelte Pflanzen je Wiederholung benutzt, wobei 15 Pflanzen zwecks Selbstbestäubung des Blütenkörbchens isoliert werden, 15 Pflanzen mit einem Pollengemisch, gesammelt von 20 bis 25 behandelten isolierten Körbchen, bestäubt werden, und 15 Pflanzen für freie Bestäubung gelassen werden, damit das Ansetzen von Achänen mit dem Pollen der Vaterform kontrolliert worden kann.
Man beurteilt die Pollensterilität von Pflanzen der Sonnenblume nach der Pollenfertilität und -keimfähigkeit, nach den morphologischen Besonderheiten von Spermien und nach der Fähigkeit von Achänen […] bei der Bestäubung der behandelten isolierten Pflanzen mit dem Pollen der unbehandelten väterlichen Form. Die Lebensfähigkeit der Eizelle wird nach der Samenbildung bei behandelten Pflanzen bei freier Bestäubung der väterlichen Form bestimmt.
Pflanzen der Sonnenblume Sorte Peredovik werden in der V. Periode der Organogenese (nach Kupermann) mit einer 0,2%igen wäßrigen Emulsion von 1,1,3-Tribrompropan, 1,2--Dibrompropan behandelt. Die Emulsion enthält 0,5 Masse% C12-C14-Kalziumalkylbenzolsulfonat und 0,01 Masse% Dimethylsulfoxid als Adjuvans. Der Verbrauch an Präparat beträgt 1,2 kg/ha bei 600 1 Wasserdurchsatz. Die Prüfergebnisse sind in der Tabelle 16 angegeben. Die gleichen Ergebnisse sind bei der Behandlung der Sonnenblume Sorte Peredovik in der VI. Periode der Organogenese erhalten.
Man verfährt analog den Beispielen 85 und 86. Als Sterilisationsmittel dient eine 0,1%ige wäßrige Emulsion von 1,2-Dibrom-3-chlorpropan. Der Verbrauch an Präparat beträgt […]. Die Prüfergebnisse sind in der Tabelle 16 angegeben.

[3] = system: tetraploidem Roggen Ukrainskaya tetra; experiment: Field test of gametocidal activity, tetraploid rye Ukrainskaya tetra; format: in vivo; settings: period V, 1% aqueous emulsion, 6 kg/ha in 600 l water; for Prozentsatz des Ansetzens von Samen bei freier Bestäubung: control = 100
Source text: as §1, §2, §3, §4, §5
Pflanzen von tetraploidem Roggen Ukrainskaya tetra werden in der V.Periode der Organogenese (nach Kupermann) mit einer 1%igen wäßrigen Emulsion von 1,2,3-Tribrompropan, 1,2-Dibrompropan bzw. 1,2-Dibrom-3-chlorpropan behandelt. Die Emulsion enthält 0,5 Masse% C12-C14-Kalzium- alkylbenzolsulfonat und 0,01 Masse% Tetrahydrofuran. Der Verbrauch an Präparat beträgt 6 kg/ha bei 600 1 Wasserdurchsatz. Als Kontrolle dienen Pflanzen, behandelt mit dem Verdünner ohne Sterilisationsmittel. Die Prüfergebnisse sind in der Tabelle 8 angegeben. Die gleichen Ergebnisse sind bei der Behandlung von tetraploidem Roggen Ukrainskaya in der VI. Periode der Organogenese erhalten.

[4] = system: tetraploidem Roggen Gibrid 67; experiment: Field test of gametocidal activity, tetraploid rye Gibrid 67; format: in vivo; settings: period V, 1% aqueous emulsion, 10 kg/ha; for Prozentsatz des Ansetzens von Samen bei freier Bestäubung: control = 100
Source text: as §1, §2, §3, §4, §5
Pflanzen von tetraploidem Roggen Gibrid 67 werden in der V.Periode der Organogenese mit einer l%igen wäßrigen Emulsion von 1,2,3-Tribrompropan, 1,2-Dibrompropan bzw. 1,2-Dibrom-3-chlorpropan behandelt. Die Emulsion enthält 0,5 Masse% C12-C14-Kalziumalkylbenzolsulfonat und 0,01 Masse% Dimethylsulfoxid. Der Verbrauch an Präparat beträgt 10 kg/ha. Die Prüfergebnisse sind in der Tabelle 10 angegeben. Die gleichen Ergebnisse sind bei der Behandlung von tetraploidem Roggen Gibrid 67 in der VI. Periode der Organogenese erhalten.

[5] = system: diploidem Roggen Gibrid 1864/79; experiment: Field test of gametocidal activity, diploid rye Gibrid 1864/79; format: in vivo; settings: period V, 1% aqueous emulsion, 6 kg/ha in 600 l water; for Prozentsatz des Ansetzens von Samen bei freier Bestäubung: control = 100
Source text: as §1, §2, §3, §4, §5
Pflanzen von diploidem Roggen Gibrid 1864/79 werden in der V. Periode der Organogenese mit einer l%igen wäßrigen Emulsion von 1,2,3-Tribrompropan, 1,2-Dibrompropan, 1,1,1,3--Tetrabromheptan, 1,1,3-Tribromheptan behandelt. Die Emulsion enthält 0,5 Masse% C12-C14-Kalziumalkylbenzolsulfonat und 0,01 Masse% Äthylenglykol. Der Verbrauch an Präparat beträgt 6 kg/ha bei 600 1 Wasserdurchsatz. Die Prüfergebnisse sind in der Tabelle 12 angegeben. Die gleichen Ergebnisse sind bei der Behandlung von diploidem Roggen Gibrid 1864/79 in der VI. Periode der Organogenese erhalten.

[6] = system: Sommerweizens Sorte Rodina; experiment: Field test of gametocidal activity, spring wheat Rodina; format: in vivo, Weizen; settings: period V, 1% aqueous emulsion, 6 kg/ha in 600 l water; for Prozentsatz des Ansetzens von freier Bestäubung: control = 100
Source text: as §1, §2, §3, §4, §5
Pflanzen des Sommerweizens Sorte Rodina werden in der V.Periode der Organogenese (nach Kupermann) mit einer l%igen wäßrigen Emulsion von 1,3-Dibrompropan, 1,1,1,3-Tetrabromheptan, 1,1,3-Tribromheptan bzw. 1,2-Dibromheptan behandelt. Die Emulsion enthalt 0,5 Masse% C12-C14 Kalziumalk^ylbenzol- sulfonat und 0,01 Masse% Dodezylsulfat. Der Verbrauch an Präparat beträgt 6 Kg/ha bei 600 1 Wasserdurchsatz. Als Kontrolle dienen Pflanzen, behandelt mit dem Verdünner ohne Sterilisationsmittel.
Die Prüfergebnisse sind in der Tabelle 3 angegeben. Die gleichen Ergebnisse sind bei der Behandlung des Sommerweizens Sorte Rodina in der VI. Periode der Organogenese erhalten.

[7] = period V, 0.2% aqueous emulsion, 1.2 kg/ha in 600 l water
[8] = 0.1% aqueous emulsion, 1.0 kg/ha

SMILES	Kornzahl der Ähre bei freier Bestäubung [1]	Kornzahl der Ähre im Isolator [1]	Prozentsatz der Sterilität [1]	Prozentsatz des Ansetzens von Samen bei freier Bestäubung [1]	Kornzahl der Ähre bei freier Bestäubung [3]	Kornzahl der Ähre unter Isolator [3]	Prozentsatz der Sterilität [3]	Prozentsatz des Ansetzens von Samen bei freier Bestäubung [3]	Kornzahl der Ähre bei freier Bestäubung [4]	Kornzahl der Ähre im Isolator [4]	Prozentsatz der Sterilität [4]	Prozentsatz des Ansetzens von Samen bei freier Bestäubung [4]	Kornzahl der Ähre bei freier Bestäubung [5]	Kornzahl der Ähre unter Isolator [5]	Prozentsatz der Sterilität [5]	Prozentsatz des Ansetzens von Samen bei freier Bestäubung [5]	Kornzahl der Ähre bei freier Bestäubung [6]	Kornzahl der Ähre im Isolator [6]	Prozentsatz der Sterilität [6]	Prozentsatz des Ansetzens von freier Bestäubung [6]	other results
BrCCC(Br)Br [Beispiel 1, 1,1,3-Tribrompropan]	34,5	1,2	97,0%	78,1%																	Ansetzen bei freier Bestäubung in % [2, 7]: 78,7%; Ansetzen im Isolator bei Pollengemischbestäubung in % [2, 7]: 0,0%; Pollenleistung in % [2, 7]: 30,0%; Pollensterilität in % [2, 7]: 100,0%
BrCC(Br)CBr [Beispiel 4, 1,2,3-Tribrompropan]	42,0	0,0	100,0%	95,0%	48,6	0,0	100,0%	94,2%	40,6	0,6	98,6%	82,0%	42,1	0,0	100,0%	88,0%					
CC(Br)CBr (stereo not shown) [Beispiel 5, 1,2-Dibrompropan]					47,5	0,3	99,4%	92,1%	42,7	0,2	99,5%	86,3%	46,4	0,0	100,0%	97,1%					Ansetzen bei freier Bestäubung in % [2, 7]: 84,5%; Ansetzen im Isolator bei Pollengemischbestäubung in % [2, 7]: 0,0%; Pollenleistung in % [2, 7]: 13,1%; Pollensterilität in % [2, 7]: 100,0%
ClCC(Br)CBr (stereo not shown) [Beispiel 7, 1,2-Dibrom-3-chlorpropan]	37,4	0,0	100,0%	84,6%	45,8	0,6	98,8%	88,7%	45,2	0,0	100,0%	91,3%									Ansetzen bei freier Bestäubung in % [2, 8]: 81,4%; Ansetzen im Isolator bei Pollengemischbestäubung in % [2, 8]: 0,0%; Pollenleistung in % [2, 8]: 0,0%; Pollensterilität in % [2, 8]: 100,0%
CCCCC(Br)CC(Br)(Br)Br (stereo not shown) [Beispiel 9, 1,1,1,3-Tetrabromheptan]													49,2	0,0	100,0%	103,0%	35,4	0,0	100,0%	87,6%	
CCCCC(Br)CC(Br)Br (stereo not shown) [Beispiel 10, 1,1,3-Tribromheptan]													52,6	0,0	100,0%	109,8%	33,8	0,0	100,0%	83,7%	
CCCCCC(Br)CBr (stereo not shown) [Beispiel 11, 1,2-Dibromheptan]																	32,7	0,0	100,0%	80,9%	
